# Key:
# [1] = tested on: panel of tumor cell lines; details: cited from earlier work
# [2] = tested on: Candida strains; assay: Antifungal screening; assay type: cell-based; details: several Candida strains / fungal screens
# [3] = tested on: recombinant RSV encoding Renilla luciferase (rA2-Rluc); assay: RSV antiviral assay (Renilla luciferase reporter RSV in A549 cells); assay type: cell-based, respiratory syncytial virus; details: for activity against RSV (in words): inhibition of RSV gene expression / viral transcription; for IC50: rA2-Rluc in A549 cells, 24 h, luciferase activity, read-out: IC50 against RSV
# Method: A549 (CCL-185, ATCC) cells were seeded at 1.6×10^4 cells in 100 μl of 5% FBS/1× penicillin-streptomycin/F12 medium per well in 96-well uClear® black plates with clear bottom (Greiner 655090). Cells were infected with 400 PFU/well of a recombinant RSV encoding Renilla luciferase as an additional transcription unit (rA2-Rluc^22) in total volume of 50 μL/well and allowed to adsorb for 1 h. Purified compounds were serially diluted two-fold in triplicate and 50 μL/well of the diluted extracts were added to the infected cells. After further incubation at 37° C. and 5% CO2 for 24 h, the supernatants were removed and cells were lysed using Renilla lysis buffer (Promega). Luciferase activity was measured with the Renilla Luciferase reagent (Promega) and BioTek Synergy Mx microplate luminometer using Gen5 version 2.00.18 software. RSV antiviral effect for test samples was determined by normalizing to DMSO-treated control samples and multiplying by 100 to obtain percent of control. Statistical analysis was performed using GraphPad Prism software version 9.4.1.
# [4] = tested on: ESKAPE pathogens; assay: Antibacterial screening; assay type: cell-based; details: ESKAPE pathogens / bacterial screens
# [5] = tested on: MRSA; details: cited from earlier work
# [6] = tested on: HIV gene expression; details: cited from earlier work
Molecule,antifungal activity [2],activity against RSV (in words) [3],antibacterial activity [4],also measured
isosuberitenone B,,,,cytotoxicity against a panel of tumor cell lines [1]: weak cytotoxicity
"CC(=O)OC1CC2(C)C=C(C3CC(=O)C(C)=CC3O)CCC2C2(C)CCCC(C)(C)C12 (stereo not shown) [Compound 10, suberitenone A]",inactive,active,inactive,IC50 [3]: 7.9 µM
oxaspirosuberitenone,,,,antibacterial activity against MRSA [5]: mild antibacterial activity
"CC(=O)OC1CC2(C)C=C3C4CC(=O)C(C)(CC4O)C3CC2C2(C)CCCC(C)(C)C12 (stereo not shown) [Compound 1, Neosuberitenone A]",,,,viral inhibitory effects at 25 μg/mL ([3]; 25 μg/mL): did not show any viral inhibitory effects
"CC(=O)OC1CC2(C)CC(O)(C3CC(=O)C(C)=CC3O)CCC2C2(C)CCCC(C)(C)C12 (stereo not shown) [Compound 11, suberitenone B]",inactive,active,inactive,IC50 [3]: 3.5 µM
19-episuberitenone B,,,,cytotoxicity against a panel of tumor cell lines [1]: weak cytotoxicity
"CC(=O)OC1CC2(C)C(O)C(C3CC(=O)C(C)=CC3O)=CCC2C2(C)CCCC(C)(C)C12 (stereo not shown) [Compound 3, Suberitenone F]",inactive,active,inactive,
anvilone A,,,,HIV gene expression [6]: turned on HIV gene expression

# Reference: patent US20250352505A1, “COMPOSITIONS AND METHODS OF TREATING RESPIRATORY SYNCYTIAL VIRUS” (University of South Florida, priority 2023, published 2025)
